According to BindingDB's records for doi:10.1016/j.bioorg.2015.02.005 (North-West University, 2015):
“And” between values parts separate entries of the source, which are not always exact repeats. Equal entries are not always repeated.

What was measured:
Adenosine receptor A1 = target: T1, Adenosine receptor A1 (Rattus norvegicus, UniProt P25099); experiment: Radioligand Binding Assays
T1 sequence (P25099 whole entry): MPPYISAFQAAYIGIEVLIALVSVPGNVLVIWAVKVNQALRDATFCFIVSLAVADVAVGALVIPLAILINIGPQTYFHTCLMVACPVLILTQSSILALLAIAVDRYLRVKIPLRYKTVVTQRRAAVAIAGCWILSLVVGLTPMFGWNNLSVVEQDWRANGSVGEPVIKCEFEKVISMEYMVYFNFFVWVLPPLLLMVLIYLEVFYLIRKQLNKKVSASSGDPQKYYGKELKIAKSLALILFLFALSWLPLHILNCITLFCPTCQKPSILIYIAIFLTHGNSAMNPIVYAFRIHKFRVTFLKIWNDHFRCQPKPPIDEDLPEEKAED
Protocol: (§1) For the A2a receptor binding study, the incubation contained 10 mg of the original tissue weight of the striatal membranes, 4 nM [3H]NECA, 50 nM CPA, 10 mM MgCl2, 0.2 units/mL adenosine deaminase, the test compound and 1% DMSO. For the A1 receptor binding study, the incubations contained 5 mg of the original tissue weight of the whole brain membranes, 0.1 nM [3H]DPCPX, 0.2 units/mL adenosine deaminase, the test compound and 1% DMSO. The incubations were vortexed and incubated for 60 min at 25 °C in a shaking waterbath. Half an hour after incubation was started, the incubations were vortexed again. The incubations were terminated via filtration. The tubes were washed twice with 4 mL ice-cold Tris buffer and the filters were washed once more with 4mL ice-cold Tris buffer. The damp filters were place in scintillation vials and 4 mL of scintillation fluid was added. The vials were shaken and incubated for two hours before being counted.

[1] = target: T2, Amine oxidase [flavin-containing] B (Homo sapiens, UniProt P27338); experiment: MAO Inhibition Assays; conditions: pH 7.4
T2 sequence (P27338 whole entry): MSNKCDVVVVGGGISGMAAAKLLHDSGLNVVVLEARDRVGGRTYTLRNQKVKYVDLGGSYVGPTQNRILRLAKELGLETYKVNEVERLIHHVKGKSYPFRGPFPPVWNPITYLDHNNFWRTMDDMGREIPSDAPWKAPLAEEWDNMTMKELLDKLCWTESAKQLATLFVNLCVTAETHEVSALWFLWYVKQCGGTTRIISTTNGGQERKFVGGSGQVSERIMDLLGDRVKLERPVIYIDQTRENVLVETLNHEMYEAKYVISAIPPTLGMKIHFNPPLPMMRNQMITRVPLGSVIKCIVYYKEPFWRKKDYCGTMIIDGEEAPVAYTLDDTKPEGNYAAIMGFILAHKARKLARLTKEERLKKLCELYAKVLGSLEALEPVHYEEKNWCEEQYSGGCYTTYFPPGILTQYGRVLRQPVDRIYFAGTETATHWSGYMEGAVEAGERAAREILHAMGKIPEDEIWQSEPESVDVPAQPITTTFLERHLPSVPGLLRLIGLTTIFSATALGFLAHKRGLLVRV
Protocol: The enzymatic reactions were carried out at pH 7.4 (K2HPO4/KH2PO4 100 mM, made isotonic with KCl) to a final volume of 500 µL. The reactions contained the different inhibitor concentrations spanning at least 3 orders of magnitude and the MAO-A/B mixed substrate kynuramine (45 µM for MAO-A and 30 µM for MAO-B). DMSO, as co-solvent (4%) was added to each reaction. The enzyme reactions were initiated with the addition of MAO-A or MAO-B (0.0075 mg protein/mL) and incubated for 20 min at 37 °C in a waterbath. After termination with the additionof 400 µL NaOH (2 N) and 1000 µL water, the concentrations of the MAO generated 4-hydroxyquinoline were measured by fluorescence spectrophotometry (excitation = […]; emission = […]).

Adenosine receptor A2a = Adenosine receptor A2a (Rattus norvegicus, UniProt P30543); experiment: Radioligand Binding Assays
Sequence of Adenosine receptor A2a (P30543 whole entry): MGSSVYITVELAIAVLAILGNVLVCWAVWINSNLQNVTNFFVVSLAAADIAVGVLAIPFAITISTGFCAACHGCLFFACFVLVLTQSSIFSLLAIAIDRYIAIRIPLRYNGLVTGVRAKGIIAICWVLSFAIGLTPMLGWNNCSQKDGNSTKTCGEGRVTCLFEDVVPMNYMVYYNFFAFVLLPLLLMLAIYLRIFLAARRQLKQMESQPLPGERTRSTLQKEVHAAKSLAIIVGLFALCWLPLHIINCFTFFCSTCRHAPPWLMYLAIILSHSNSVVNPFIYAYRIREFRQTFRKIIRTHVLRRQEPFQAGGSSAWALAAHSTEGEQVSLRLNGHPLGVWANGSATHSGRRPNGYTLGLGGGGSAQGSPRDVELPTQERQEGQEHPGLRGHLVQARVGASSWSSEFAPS
Protocol: as §1

SMILES	Ki (Adenosine receptor A1)	IC50 [1] [nM]	Ki (Adenosine receptor A2a) [nM]
O=C1NC(=O)c2cc(SCCc3ccccc3)ccc21	1880 nM and 649 nM	3900	17000
COc1ccc(CSc2ccc3c(c2)C(=O)NC3=O)cc1	369 nM and 1730 nM	–	–
O=C1NC(=O)c2cc(SCc3ccccc3)ccc21	595 nM and 548 nM	–	980
O=C1Nc2ccc(OCc3ccccc3)cc2C1=O [5-Benzyloxyisatin]	9790 nM	–	–

Next, values leading:

Ki (Adenosine receptor A1)	IC50 [1] [nM]	Ki (Adenosine receptor A2a) [nM]	SMILES
4670 nM	–	–	O=C1NC(=O)c2cc(OCc3ccccc3)ccc21
36700 nM and 6300 nM	–	12700	O=C1NC(=O)c2cc(SCc3ccc(F)cc3)ccc21
676 nM	–	–	O=C1NC(=O)c2cc(SCc3ccc(Br)cc3)ccc21
–	460	–	O=C1NC(=O)c2cc(SCc3ccc(Cl)cc3)ccc21
